Reference: patent publication US20250188084A1, “COMPOUNDS AND METHODS FOR MODULATING CDK9 ACTIVITY” (KRONOS BIO, INC., priority 2020, published 2025)
Each block holds one compound with its values, some of them ahead of it.

Key:
[1] = biological target: T1, CDK9 (Homo sapiens, UniProt P50750); experiment: CDK9 degradation by HiBit assay, NCIH211 cells; type: cell-based; settings: NCIH211 cells with endogenously tagged N-terminal CDK9-HiBit, 24 hours incubation, read-out: HiBit-NCIH211.2 DC50
T1 construct: NCIH211 cells with endogenously tagged N-terminal CDK9-HiBit; endogenous in cells; host or cells: NCIH211 cells (endogenous CDK9 locus tagged with HiBit)
Experimental: (§1) Exemplary compounds of the invention were tested for degradation of CDK9. The compounds were tested in 10-dose DC50 duplicate mode with a 3-fold serial dilution starting at 10 μM by HiBit assay (Promega, Inc) as a direct measurement of CDK9 presence, with incubation time of 24 hours using either NCIH211 cells with endogenously tagged N-terminal CDK9-HiBit or NCIH1048 cells with endogenously tagged N-terminal CDK9-HiBit. A control compound (THAL-SNS-032, CAS 2139287-33-3) was tested in 10-dose DC50 mode with 3-fold serial dilution starting at 10 μM. Data was normalized to positive (medium only) and negative (cells with no treatment) controls and curve fits were analyzed with CDK9 as % response vs. log [compound concentration] using a 4-parameter logistic model by GraphPad software. For Table 2: A is <100, B is <1000 C is <10,000, D is >10,000 and ND is Not Determined.

[2] = biological target: T1, CDK9; experiment: CDK9 degradation by HiBit assay, NCIH1048 cells; type: cell-based; settings: NCIH1048 cells with endogenously tagged N-terminal CDK9-HiBit, 24 hours incubation, read-out: HiBit-NCIH1048.3 DC50
Experimental: as §1

[3] = numeric value (control compound)

T1 sequence (P50750 whole entry): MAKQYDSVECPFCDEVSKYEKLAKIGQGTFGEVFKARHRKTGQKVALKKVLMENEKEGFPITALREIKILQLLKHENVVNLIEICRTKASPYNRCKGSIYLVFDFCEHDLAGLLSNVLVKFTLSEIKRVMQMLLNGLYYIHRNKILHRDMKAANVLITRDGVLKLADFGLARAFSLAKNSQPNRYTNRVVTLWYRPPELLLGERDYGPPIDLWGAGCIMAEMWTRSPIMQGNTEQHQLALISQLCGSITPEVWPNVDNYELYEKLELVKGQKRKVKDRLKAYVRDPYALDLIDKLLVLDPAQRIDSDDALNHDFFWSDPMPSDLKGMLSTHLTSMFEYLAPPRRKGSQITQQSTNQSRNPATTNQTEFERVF
T1 sequence (O60563 whole entry partner): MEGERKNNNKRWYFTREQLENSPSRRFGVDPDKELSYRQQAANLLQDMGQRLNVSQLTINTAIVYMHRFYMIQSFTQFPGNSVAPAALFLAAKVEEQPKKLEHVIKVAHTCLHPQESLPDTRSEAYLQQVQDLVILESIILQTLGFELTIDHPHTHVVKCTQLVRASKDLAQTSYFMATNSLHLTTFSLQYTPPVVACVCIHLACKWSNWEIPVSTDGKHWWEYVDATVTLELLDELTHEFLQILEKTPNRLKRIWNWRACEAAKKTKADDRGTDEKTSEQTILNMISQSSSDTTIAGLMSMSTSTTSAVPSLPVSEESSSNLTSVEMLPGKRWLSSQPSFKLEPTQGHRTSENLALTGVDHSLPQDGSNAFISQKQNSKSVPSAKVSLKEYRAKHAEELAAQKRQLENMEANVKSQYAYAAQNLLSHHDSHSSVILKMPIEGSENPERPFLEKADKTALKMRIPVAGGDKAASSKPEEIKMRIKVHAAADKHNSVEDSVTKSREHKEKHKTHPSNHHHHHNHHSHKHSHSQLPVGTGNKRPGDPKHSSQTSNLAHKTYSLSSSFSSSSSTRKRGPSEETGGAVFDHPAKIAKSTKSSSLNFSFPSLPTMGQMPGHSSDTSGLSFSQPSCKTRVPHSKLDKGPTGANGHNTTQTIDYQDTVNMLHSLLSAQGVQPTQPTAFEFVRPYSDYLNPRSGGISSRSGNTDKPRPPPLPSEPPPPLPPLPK

SMILES: CCC(CC)c1cc(N[C@H]2CC[C@H](NCC(=O)NCCOCCOCCOCCNc3cccc4c3C(=O)N(C3CCC(=O)NC3=O)C4=O)C2)n2ncc(Cl)c2n1 (stereo partly drawn) [Compound 6.0, N-[2-[2-[2-[2-[[2-(2,6-dioxo-3-piperidyl)-1,3-dioxo-isoindolin-4-yl]amino]ethoxy]ethoxy]ethoxy]ethyl]-2-[[(1S,3S)-3-[[3-chloro-5-(1-ethylpropyl)pyrazolo[1,5-a]pyrimidin-7-yl]amino]cyclopentyl]amino]acetamide]
- DC50 [1]: < 1000 nM
- DC50 [2]: < 100 nM

SMILES: CCC(CC)c1cc(N[C@H]2CC[C@H](NCC(=O)N3CCN(CCCNc4cccc5c4C(=O)N(C4CCC(=O)NC4=O)C5=O)CC3)C2)n2ncc(Cl)c2n1 (stereo partly shown) [Compound 50.0]
- DC50 [1]: < 100 nM
- DC50 [2]: < 100 nM

SMILES: CCC(CC)c1cc(N[C@H]2CC[C@H](NCC(=O)N3CCN(CCCCNc4cccc5c4C(=O)N(C4CCC(=O)NC4=O)C5=O)CC3)C2)n2ncc(Cl)c2n1 (stereo partly shown) [Compound 45.0]
- DC50 [1]: < 100 nM
- DC50 [2]: < 100 nM

SMILES: CCC(CC)c1cc(N[C@H]2CC[C@H](NCC(=O)N3CCN(CCNc4cccc5c4C(=O)N(C4CCC(=O)NC4=O)C5=O)CC3)C2)n2nccc2n1 (stereo partly shown) [Compound 47.0]
- DC50 [1]: < 1000 nM
- DC50 [2]: < 100 nM

SMILES: CCC(CC)c1cc(N[C@H]2CC[C@H](NCC(=O)NCCOCCOCCOCCNc3cccc4c3C(=O)N(C3CCC(=O)NC3=O)C4=O)C2)n2nccc2n1 (stereo partly drawn) [Compound 5.0, N-[2-[2-[2-[2-[[2-(2,6-dioxo-3-piperidyl)-1,3-dioxo-isoindolin-4-yl]amino]ethoxy]ethoxy]ethoxy]ethyl]-2-[[(1S,3S)-3-[[5-(1-ethylpropyl)pyrazolo[1,5-a]pyrimidin-7-yl]amino]cyclopentyl]amino]acetamide]
- DC50 [1]: < 10000 nM
- DC50 [2]: < 1000 nM

SMILES: C/C=C(\CC)c1cc(N[C@H]2CC[C@H](NCC(=O)N3CCN(CCCNc4cccc5c4C(=O)N(C4CCC(=O)NC4=O)C5=O)CC3)C2)n2nccc2n1 (stereo partly drawn) [Compound 21.0, 2-(2,6-dioxo-3-piperidyl)-4-[3-[4-[2-[[(1S,3S)-3-[[5-[(E)-1-ethylprop-1-enyl]pyrazolo[1,5-a]pyrimidin-7-yl]amino]cyclopentyl]amino]acetyl]piperazin-1-yl]propylamino]isoindoline-1,3-dione]
- DC50 [1]: < 100 nM
- DC50 [2]: < 100 nM

SMILES: C/C=C(\CC)c1cc(N[C@H]2CC[C@H](NCC(=O)N3CCN(CCNc4cccc5c4C(=O)N(C4CCC(=O)NC4=O)C5=O)CC3)C2)n2ncc(Cl)c2n1 (stereo partly drawn) [Compound 58.0, 4-[2-[4-[2-[[(1S,3S)-3-[[3-chloro-5-[(E)-1-ethylprop-1-enyl]pyrazolo[1,5-a]pyrimidin-7-yl]amino]cyclopentyl]amino]acetyl]piperazin-1-yl]ethylamino]-2-(2,6-dioxo-3-piperidyl)isoindoline-1,3-dione]
- DC50 [1]: < 100 nM
- DC50 [2]: < 100 nM

SMILES: CCC(CC)c1cc(N[C@H]2CC[C@H](NCC(=O)N3CCN(CCCCNc4cccc5c4C(=O)N(C4CCC(=O)NC4=O)C5=O)CC3)C2)n2nccc2n1 (stereo partly shown) [Compound 46.0]
- DC50 [1]: < 1000 nM
- DC50 [2]: < 100 nM

SMILES: CCC(CC)c1cc(N[C@H]2CC[C@H](NC(=O)COCCOCCOCCNC(=O)COc3cccc4c3C(=O)N(C3CCC(=O)NC3=O)C4=O)C2)n2ncc(Cl)c2n1 (stereo partly drawn) [Compound 3.0, N-[(1S,3S)-3-[[3-chloro-5-(1-ethylpropyl)pyrazolo[1,5-a]pyrimidin-7-yl]amino]cyclopentyl]-2-[2-[2-[2-[[2-[2-(2,6-dioxo-3-piperidyl)-1,3-dioxo-isoindolin-4-yl]oxyacetyl]amino]ethoxy]ethoxy]ethoxy]acetamide]
- DC50 [1]: > 10000 nM

SMILES: CCC(CC)c1cc(N[C@H]2CC[C@H](NCC(C)N3CCN(CCNc4cccc5c4C(=O)N(C4CCC(=O)NC4=O)C5=O)CC3)C2)n2nccc2n1 (stereo partly drawn) [Compound 17.0, 2-(2,6-dioxo-3-piperidyl)-4-[2-[4-[2-[[(1S,3S)-3-[[5-(1-ethylpropyl)pyrazolo[1,5-a]pyrimidin-7-yl]amino]cyclopentyl]amino]-1-methyl-ethyl]piperazin-1-yl]ethylamino]isoindoline-1,3-dione]
- DC50 [1]: < 10000 nM

SMILES: C/C=C(\CC)c1cc(N[C@H]2CC[C@H](NCC(=O)N3CCN(CCCCNc4cccc5c4C(=O)N(C4CCC(=O)NC4=O)C5=O)CC3)C2)n2nccc2n1 (stereo partly shown) [Compound 56.0]
- DC50 [1]: < 100 nM
- DC50 [2]: < 100 nM

SMILES: CCC(CC)c1cc(N[C@H]2CC[C@H](NCC(=O)N3CCN(CCNc4cccc5c4C(=O)N(C4CCC(=O)NC4=O)C5=O)CC3)C2)n2ncc(Cl)c2n1 (stereo partly shown) [Compound 49.0]
- DC50 [1]: < 100 nM

SMILES: CCC(CC)c1cc(N[C@H]2CC[C@H](NCC(=O)NCCCc3cn(CCOCCNc4cccc5c4C(=O)N(C4CCC(=O)NC4=O)C5=O)nn3)C2)n2nccc2n1 (stereo partly shown) [Compound 22.0]
- DC50 [1]: > 10000 nM

SMILES: CC(C)(C)c1cnc(CSc2cnc(NC(=O)C3CCN(CC(=O)NCCOCCOCCOCCNc4cccc5c4C(=O)N(C4CCC(=O)NC4=O)C5=O)CC3)s2)o1 (stereo not shown) [THAL-SNS-032, reference compound]
- DC50 [1, 3]: 53 nM
- DC50 [2, 3]: 11 nM

SMILES: CCC(CC)c1cc(N[C@H]2CC[C@H](NC(=O)COCCOCCNC(=O)COc3cccc4c3C(=O)N(C3CCC(=O)NC3=O)C4=O)C2)n2nccc2n1 (stereo partly drawn) [Compound 1.0, 2-[2-[2-[[2-[2-(2,6-dioxo-3-piperidyl)-1,3-dioxo-isoindolin-4 yl]oxyacetyl]amino]ethoxy]ethoxy]-N-[(1S,3S)-3-[[5-(1-ethylpropyl)pyrazolo[1,5-a]pyrimidin-7-yl]amino]cyclopentyl]acetamide]
- DC50 [1]: > 10000 nM

SMILES: CCC(CC)c1cc(N[C@H]2CC[C@H](NC(=O)COCCOCCOCCNC(=O)COc3cccc4c3C(=O)N(C3CCC(=O)NC3=O)C4=O)C2)n2nccc2n1 (stereo partly drawn) [Compound 2.0, 2-[2-[2-[2-[[2-[2-(2,6-dioxo-3-piperidyl)-1,3-dioxo-isoindolin-4-yl]oxyacetyl]amino]ethoxy]ethoxy]ethoxy]-N-[(1S,3S)-3-[[5-(1-ethylpropyl)pyrazolo[1,5-a]pyrimidin-7-yl]amino]cyclopentyl]acetamide]
- DC50 [1]: > 10000 nM

The remaining lines, values ahead:

- DC50 [1]: < 10000 nM
- DC50 [2]: < 10000 nM
SMILES: CCC(CC)c1cc(N[C@H]2CC[C@H](NCC(=O)NCCCc3cn(CCOCCOCCOc4cc(-c5scnc5C)ccc4CNC(=O)[C@@H]4C[C@@H](O)CN4C(=O)[C@H](C(C)C)N4Cc5ccccc5C4=O)nn3)C2)n2ncc(Cl)c2n1 [Compound 51.0]

- DC50 [1]: < 1000 nM
SMILES: CCC(CC)c1cc(N[C@H]2CC[C@H](NCC(=O)NCCCn3cc(CCOCCNc4cccc5c4C(=O)N(C4CCC(=O)NC4=O)C5=O)nn3)C2)n2ncc(Cl)c2n1 (stereo partly shown) [Compound 24.0]

- DC50 [1]: > 10000 nM
- DC50 [2]: < 10000 nM
SMILES: CCC(CC)c1cc(N[C@H]2CC[C@H](NCC(=O)NCCCc3cn(CCOCCOc4cc(-c5scnc5C)ccc4CNC(=O)[C@@H]4C[C@@H](O)CN4C(=O)[C@H](C(C)C)N4Cc5ccccc5C4=O)nn3)C2)n2ncc(Cl)c2n1 [Compound 52.0]

- DC50 [1]: > 10000 nM
SMILES: CCC(CC)c1cc(N[C@H]2CC[C@H](NCC(=O)NCc3cn(CCOCCOCCOCC(=O)N[C@H](C(=O)N4C[C@H](O)C[C@H]4C(=O)NCc4ccc(-c5scnc5C)cc4)C(C)(C)C)nn3)C2)n2nccc2n1 [Compound 27.0]

- DC50 [1]: > 10000 nM
SMILES: CCC(CC)c1cc(N[C@H]2CC[C@H](NCc3cn(CCOCCOCC(=O)N[C@H](C(=O)N4C[C@H](O)C[C@H]4C(=O)NCc4ccc(-c5scnc5C)cc4)C(C)(C)C)nn3)C2)n2nccc2n1 [Compound 34.0]

- DC50 [1]: > 10000 nM
SMILES: CCC(CC)c1cc(N[C@H]2CC[C@H](NCC(=O)NCc3cn(CCOCCOCCOCCOCCOc4cc(-c5scnc5C)ccc4CNC(=O)[C@@H]4C[C@@H](O)CN4C(=O)[C@H](C(C)C)N4Cc5ccccc5C4=O)nn3)C2)n2nccc2n1 [Compound 32.0]

- DC50 [1]: > 10000 nM
SMILES: CCC(CC)c1cc(N[C@H]2CC[C@H](NCC(=O)NCc3cn(CCOCCOCC(=O)N[C@H](C(=O)N4C[C@H](O)C[C@H]4C(=O)NCc4ccc(-c5scnc5C)cc4)C(C)(C)C)nn3)C2)n2nccc2n1 [Compound 26.0]

- DC50 [1]: > 10000 nM
SMILES: CCC(CC)c1cc(N[C@H]2CC[C@H](NCc3cn(CCOCCOCCOCCOCCOc4cc(-c5scnc5C)ccc4CNC(=O)[C@@H]4C[C@@H](O)CN4C(=O)[C@H](C(C)C)N4Cc5ccccc5C4=O)nn3)C2)n2nccc2n1 [Compound 40.0]

- DC50 [1]: > 10000 nM
SMILES: CCC(CC)c1cc(N[C@H]2CC[C@H](NCCOCCOCCOCCn3cc(CNc4cccc5c4C(=O)N(C4CCC(=O)NC4=O)C5=O)nn3)C2)n2ncc(Cl)c2n1 (stereo partly shown) [Compound 16.0]

- DC50 [1]: > 10000 nM
SMILES: CCC(CC)c1cc(N[C@H]2CC[C@H](NCC(=O)NCCCc3cn(CCOCC(=O)N[C@H](C(=O)N4C[C@H](O)C[C@H]4C(=O)NCc4ccc(-c5scnc5C)cc4)C(C)(C)C)nn3)C2)n2ncc(Cl)c2n1 [Compound 43.0]

- DC50 [1]: > 10000 nM
SMILES: CCC(CC)c1cc(N[C@H]2CC[C@H](NCC(=O)NCCCc3cn(CCOCCOCC(=O)N[C@H](C(=O)N4C[C@H](O)C[C@H]4C(=O)NCc4ccc(-c5scnc5C)cc4)C(C)(C)C)nn3)C2)n2ncc(Cl)c2n1 [Compound 44.0]

- DC50 [1]: > 10000 nM
SMILES: CCC(CC)c1cc(N[C@H]2CC[C@H](NCc3cn(CCOCCOCCOCCOCC(=O)N[C@H](C(=O)N4C[C@H](O)C[C@H]4C(=O)NCc4ccc(-c5scnc5C)cc4)C(C)(C)C)nn3)C2)n2nccc2n1 [Compound 36.0]
